Measurements taken from US20240018123A1, “COMPOUND FOR INHIBITING OR DISINTEGRATING ANDROGEN RECEPTOR, AND PHARMACEUTICAL USE THEREOF” (KOREA RESEARCH INSTITUTE OF CHEMICAL TECHNOLOGY, priority 2020, published 2024).

The compounds below were run against T1, Androgen receptor (AR) (Homo sapiens, UniProt P10275, T878A) (assay: Assessment of AR proteolytic activity (Western blotting of LNCap cell lysates)). Conditions: 24 hours of treatment, Western blotting quantified with Image J.
T1 construct: 5.5×10^5 LNCap cells were injected into each well of a 6-well plate; endogenous in cells; host or cells: LNCaP
T1 sequence (P10275 1-920 T878A): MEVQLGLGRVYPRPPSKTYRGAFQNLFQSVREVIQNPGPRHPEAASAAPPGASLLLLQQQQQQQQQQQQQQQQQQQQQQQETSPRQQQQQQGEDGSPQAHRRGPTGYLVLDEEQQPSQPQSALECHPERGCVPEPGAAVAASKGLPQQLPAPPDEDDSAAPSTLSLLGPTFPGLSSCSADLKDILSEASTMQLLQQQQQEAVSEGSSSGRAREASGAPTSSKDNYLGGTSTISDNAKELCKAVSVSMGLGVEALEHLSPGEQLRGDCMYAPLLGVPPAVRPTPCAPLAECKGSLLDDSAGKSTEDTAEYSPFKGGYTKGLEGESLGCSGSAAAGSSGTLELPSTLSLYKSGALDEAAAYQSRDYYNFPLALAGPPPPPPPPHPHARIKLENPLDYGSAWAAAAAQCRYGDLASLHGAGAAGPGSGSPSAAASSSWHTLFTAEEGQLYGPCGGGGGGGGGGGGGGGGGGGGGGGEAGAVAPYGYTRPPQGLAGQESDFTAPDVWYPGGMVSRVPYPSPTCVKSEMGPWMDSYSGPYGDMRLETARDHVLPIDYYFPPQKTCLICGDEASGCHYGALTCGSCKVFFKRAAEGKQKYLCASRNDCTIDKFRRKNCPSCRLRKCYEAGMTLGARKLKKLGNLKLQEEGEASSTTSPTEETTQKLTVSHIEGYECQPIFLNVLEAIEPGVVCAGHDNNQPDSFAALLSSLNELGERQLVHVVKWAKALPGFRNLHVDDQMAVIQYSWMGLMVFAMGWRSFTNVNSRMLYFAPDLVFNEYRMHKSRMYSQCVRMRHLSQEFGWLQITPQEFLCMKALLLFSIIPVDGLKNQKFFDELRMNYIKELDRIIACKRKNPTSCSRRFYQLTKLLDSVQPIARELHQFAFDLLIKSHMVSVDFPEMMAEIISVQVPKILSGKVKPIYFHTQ
Format: cell-based
Method: Assessment of AR Proteolytic Activity
Androgen receptor (AR) proteolytic activity of the compound according to the present invention was evaluated as follows: Specifically, 5.5×10^5 LNCap cells were injected into each well of a 6-well plate. […] After 24 hours of treatment, cells were collected and lysed using RIPA Lysis buffer (50 mM Tris-HCl, pH7.5, 150 mM NaCl, 1% Triton X-100, 2 mM EDTA, 0.1% SDS, 0.5% sodium deoxycholate and protease inhibitor cocktail) to make cell lysates. Western blotting was performed, and the results were quantified using Image J program.
For `N#Cc1ccc(OC2CCC(NC(=O)c3ccc(N4CCC(CN5CCN(c6ccc7nnn(C8CCC(=O)NC8=O)c(=O)c7c6)CC5)CC4)nc3)CC2)cc1Cl` (stereo not drawn) [Example 160, N-((1r,4r)-4-(3-chloro-4-cyanophenoxy)cyclohexyl)-6-(4-((4-(3-(2,6-dioxopiperidin-3-yl)-4-oxo-3,4-dihydrobenzo[d][1,2,3]triazin-6-yl)piperazin-1-yl)methyl)piperidin-1-yl)nicotinamide], the “Degradation (1 μM treated in LNCaP, % AR remaining)” value was 31%. `N#Cc1ccc(O[C@H]2CC[C@@H](NC(=O)c3ccc(N4CCN(CCCOc5ccc6nnn(C7CCC(=O)NC7=O)c(=O)c6c5)CC4)nc3)CC2)cc1Cl` (stereo partly drawn) [Example 161, N-((1r,4r)-4-(3-chloro-4-cyanophenoxy)cyclohexyl)-6-(4-(3-((3-(2,6-dioxopiperidin-3-yl)-4-oxo-3,4-dihydrobenzo[d][1,2,3]triazin-6-yl)oxy)propyl)piperazin-1-yl)nicotinamide] was tested, and the “Degradation (1 μM treated in LNCaP, % AR remaining)” value was 36%. With `CC1(C)C(NC(=O)c2ccc(N3CCC(CN4CCN(c5ccc6nnn(C7CCC(=O)NC7=O)c(=O)c6c5)CC4)CC3)nc2)C(C)(C)C1Oc1ccc(C#N)c(Cl)c1` (stereo not drawn) [Example 162, N-((1r,3r)-3-(3-chloro-4-cyanophenoxy)-2,2,4,4-tetramethylcyclobutyl)-6-(4-((4-(3-(2,6-dioxopiperidin-3-yl)-4-oxo-3,4-dihydrobenzo[d][1,2,3]triazin-6-yl)piperazin-1-yl)methyl)piperidin-1-yl)nicotinamide] the “Degradation (1 μM treated in LNCaP, % AR remaining)” value was 30%. With `CC1(C)C(NC(=O)c2ccc(N3CCN(CCCCCOc4ccc5nnn(C6CCC(=O)NC6=O)c(=O)c5c4)CC3)nc2)C(C)(C)C1Oc1ccc(C#N)c(Cl)c1` (stereo not drawn) [Example 163, N-((1r,3r)-3-(3-chloro-4-cyanophenoxy)-2,2,4,4-tetramethylcyclobutyl)-6-(4-(5-((3-(2,6-dioxopiperidin-3-yl)-4-oxo-3,4-dihydrobenzo[d][1,2,3]triazin-6-yl)oxy)pentyl)piperazin-1-yl)nicotinamide] the “Degradation (1 μM treated in LNCaP, % AR remaining)” value was 10%. `N#Cc1ccc(OC2CCC(NC(=O)c3ccc(N4CCC(CN5CCN(c6ccc7c(=O)n(C8CCC(=O)NC8=O)nnc7c6)CC5)CC4)nc3)CC2)cc1Cl` (stereo not drawn) [Example 164, N-((1r,4r)-4-(3-chloro-4-cyanophenoxy)cyclohexyl)-6-(4-((4-(3-(2,6-dioxopiperidin-3-yl)-4-oxo-3,4-dihydrobenzo[d][1,2,3]triazin-7-yl)piperazin-1-yl)methyl)piperidin-1-yl)nicotinamide] was tested, and the “Degradation (1 μM treated in LNCaP, % AR remaining)” value was 13%. `CC1(C)C(NC(=O)c2ccc(N3CCC(CN4CCN(c5ccc6c(=O)n(C7CCC(=O)NC7=O)nnc6c5)CC4)CC3)cc2)C(C)(C)C1Oc1ccc(C#N)c(Cl)c1` (stereo not drawn) [Example 165, N-((1r,3r)-3-(3-chloro-4-cyanophenoxy)-2,2,4,4-tetramethylcyclobutyl)-4-(4-((4-(3-(2,6-dioxopiperidin-3-yl)-4-oxo-3,4-dihydrobenzo[d][1,2,3]triazin-7-yl)piperazin-1-yl)methyl)piperidin-1-yl)benzamide] was tested, and the “Degradation (1 μM treated in LNCaP, % AR remaining)” value was 8%. In the case of `CC1(C)C(NC(=O)c2ccc(N3CCC(CN4CCN(c5ccc6nnn(C7CCC(=O)NC7=O)c(=O)c6c5)CC4)CC3)cc2)C(C)(C)C1Oc1ccc(C#N)c(Cl)c1` (stereo not drawn) [Example 166, N-((1r,3r)-3-(3-chloro-4-cyanophenoxy)-2,2,4,4-tetramethylcyclobutyl)-4-(4-((4-(3-(2,6-dioxopiperidin-3-yl)-4-oxo-3,4-dihydrobenzo[d][1,2,3]triazin-6-yl)piperazin-1-yl)methyl)piperidin-1-yl)benzamide], the “Degradation (1 μM treated in LNCaP, % AR remaining)” value is reported as 13%. `N#Cc1ccc(O[C@H]2CC[C@@H](NC(=O)c3ccc(N4CCC(CN5CC6(CCN(c7ccc8c(=O)n(C9CCC(=O)NC9=O)nnc8c7)CC6)C5)CC4)nc3)CC2)cc1Cl` (stereo partly drawn) [Example 167, N-((1r,4r)-4-(3-chloro-4-cyanophenoxy)cyclohexyl)-6-(4-((7-(3-(2,6-dioxopiperidin-3-yl)-4-oxo-3,4-dihydrobenzo[d][1,2,3]triazin-7-yl)-2,7-diazaspiro[3.5]nonan-2-yl)methyl)piperidin-1-yl)nicotinamide] was tested, and the “Degradation (1 μM treated in LNCaP, % AR remaining)” value was 19%. In the case of `N#Cc1ccc(O[C@H]2CC[C@H](NC(=O)c3ccc(N4CCC(CN5CC6(CCN(c7ccc8nnn(C9CCC(=O)NC9=O)c(=O)c8c7)CC6)C5)CC4)nc3)CC2)cc1Cl` (stereo partly drawn) [Example 168, N-((1r,4r)-4-(3-chloro-4-cyanophenoxy)cyclohexyl)-6-(4-((7-(3-(2,6-dioxopiperidin-3-yl)-4-oxo-3,4-dihydrobenzo[d][1,2,3]triazin-6-yl)-2,7-diazaspiro[3.5]nonan-2-yl)methyl)piperidin-1-yl)nicotinamide], the “Degradation (1 μM treated in LNCaP, % AR remaining)” value is reported as 10%. In the case of `CC1(C)C(NC(=O)c2ccc(N3CCC(CN4CC5(CCN(c6ccc7c(=O)n(C8CCC(=O)NC8=O)nnc7c6)CC5)C4)CC3)nc2)C(C)(C)C1Oc1ccc(C#N)c(Cl)c1` (stereo not drawn) [Example 169, N-((1r,3r)-3-(3-chloro-4-cyanophenoxy)-2,2,4,4-tetramethylcyclobutyl)-6-(4-((7-(3-(2,6-dioxopiperidin-3-yl)-4-oxo-3,4-dihydrobenzo[d][1,2,3]triazin-7-yl)-2,7-diazaspiro[3.5]nonan-2-yl)methyl)piperidin-1-yl)nicotinamide], the “Degradation (1 μM treated in LNCaP, % AR remaining)” value is reported as 16%. For `CC1(C)C(NC(=O)c2ccc(N3CCC(CN4CC5(CCN(c6ccc7nnn(C8CCC(=O)NC8=O)c(=O)c7c6)CC5)C4)CC3)nc2)C(C)(C)C1Oc1ccc(C#N)c(Cl)c1` (stereo not drawn) [Example 170, N-((1r,3r)-3-(3-chloro-4-cyanophenoxy)-2,2,4,4-tetramethylcyclobutyl)-6-(4-((7-(3-(2,6-dioxopiperidin-3-yl)-4-oxo-3,4-dihydrobenzo[d][1,2,3]triazin-6-yl)-2,7-diazaspiro[3.5]nonan-2-yl)methyl)piperidin-1-yl)nicotinamide], the “Degradation (1 μM treated in LNCaP, % AR remaining)” value was 16%. For `CC1(C)[C@H](NC(=O)c2ccc(N3CCC(CN4CCC5(CC4)CN(c4ccc6c(=O)n(C7CCC(=O)NC7=O)nnc6c4)C5)CC3)nc2)C(C)(C)[C@H]1Oc1ccc(C#N)c(Cl)c1` (stereo partly drawn) [Example 171, N-((1r,3r)-3-(3-chloro-4-cyanophenoxy)-2,2,4,4-tetramethylcyclobutyl)-6-(4-((2-(3-(2,6-dioxopiperidin-3-yl)-4-oxo-3,4-dihydrobenzo[d][1,2,3]triazin-7-yl)-2,7-diazaspiro[3.5]nonan-7-yl)methyl)piperidin-1-yl)nicotinamide], the “Degradation (1 μM treated in LNCaP, % AR remaining)” value was 11%. `CC1(C)[C@H](NC(=O)c2ccc(N3CCC(CN4CCC5(CC4)CN(c4ccc6nnn(C7CCC(=O)NC7=O)c(=O)c6c4)C5)CC3)nc2)C(C)(C)[C@H]1Oc1ccc(C#N)c(Cl)c1` (stereo partly drawn) [Example 172, N-((1r,3r)-3-(3-chloro-4-cyanophenoxy)-2,2,4,4-tetramethylcyclobutyl)-6-(4-((2-(3-(2,6-dioxopiperidin-3-yl)-4-oxo-3,4-dihydrobenzo[d][1,2,3]triazin-6-yl)-2,7-diazaspiro[3.5]nonan-7-yl)methyl)piperidin-1-yl)nicotinamide] was tested, and the “Degradation (1 μM treated in LNCaP, % AR remaining)” value was 7%. `CC1(C)C(NC(=O)c2ccc(N3CCC4(CC3)CN(CC3CCN(c5ccc6c(=O)n(C7CCC(=O)NC7=O)nnc6c5)CC3)C4)nc2)C(C)(C)C1Oc1ccc(C#N)c(Cl)c1` (stereo not drawn) [Example 173, N-((1r,3r)-3-(3-chloro-4-cyanophenoxy)-2,2,4,4-tetramethylcyclobutyl)-6-(2-((1-(3-(2,6-dioxopiperidin-3-yl)-4-oxo-3,4-dihydrobenzo[d][1,2,3]triazin-7-yl)piperidin-4-yl)methyl)-2,7-diazaspiro[3.5]nonan-7-yl)nicotinamide] was tested, and the “Degradation (1 μM treated in LNCaP, % AR remaining)” value was 9%. For `CC1(C)C(NC(=O)c2ccc(N3CCC4(CC3)CN(CC3CCN(c5ccc6nnn(C7CCC(=O)NC7=O)c(=O)c6c5)CC3)C4)nc2)C(C)(C)C1Oc1ccc(C#N)c(Cl)c1` (stereo not drawn) [Example 174, N-((1r,3r)-3-(3-chloro-4-cyanophenoxy)-2,2,4,4-tetramethylcyclobutyl)-6-(2-((1-(3-(2,6-dioxopiperidin-3-yl)-4-oxo-3,4-dihydrobenzo[d][1,2,3]triazin-6-yl)piperidin-4-yl)methyl)-2,7-diazaspiro[3.5]nonan-7-yl)nicotinamide], the “Degradation (1 μM treated in LNCaP, % AR remaining)” value was 15%.
